Data on one molecule can be found in publication PMC7993727, “Discovery of a novel AR/HDAC6 dual inhibitor for prostate cancer treatment” (Aging (Albany NY), 2021).

Values joined by “and” are separate entries in the source; they are usually repeats but may differ in a detail not shown here. Equal values may be shown once.

For one series, the system named is HSP90, HSP60, HSP70. Put plainly: expression levels of heat shock proteins. The class given is cell-based.
The test system of a further series is TMPRSS2. Put plainly: TMPRSS2 mRNA (qRT-PCR) and protein (Western blot) expression in VCaP cells. The class given is cell-based. The note with it: 10 nM DHT, 24 hours. As for the experimental part:
(§1) RNA expression level was analyzed by qRT-PCR and protein expression level was analyzed by Western blot. […] (I) Representative immunofluorescence microscopic images of VCaP cells for checking the subcellular localization of AR.
The RNA of VCaP cells was extracted using a Simply P Total RNA Extraction kit (Bioer technology) and cDNA was synthesized using a SMARTer PCR cDNA Synthesis Kit (Clontech). PSA and β-actin primers were synthesized by Sangon Biotech according to previous literature. Real-time PCR was performed using the PowerUp SYBR™ Green kit (ThermoFisher). The PCR program was run on a LightCycler 480II (Roche) and set as follows: 2 minutes at 95° C followed by 40 cycles of 30 seconds at 95° C, 15 seconds at 60° C and 30 seconds at 72° C. Data were quantified using the 2-ΔΔCt method based on the Ct values of PSA and β-actin from two parallel experiments performed in triplicate.
The whole-cell extracts were prepared in lysis buffer with a protease inhibitor cocktail (Bimake), while the xenograft tissue extracts were prepared in 0.5% Nonidet P 40 Substitute solution (Biosharp) with cocktail protease inhibitor (Bimake). Each sample containing 30 μg of total protein was loaded onto 10% SDS-PAGE and electrotransferred onto polyvinylidene fluoride membranes. […]

A short description of series [1]: pharmacokinetics of Zeta55 in rats. The class given is in vivo. The following applies: for AUC(0-t): 0-72h. As for the experimental part:
To evaluate the pharmacokinetic properties of Zeta55 in vivo, rats were orally (20 mg/kg) or intravenously (5 mg/kg) administrated with Zeta55, and the plasma concentration of Zeta55 was measured using LC-MS/MS.
SD male rats weighing about 250 g were used for the pharmacokinetics study of Zeta55. After a fast of 12 hours, four rats were oral administrated with 20 mg/kg Zeta55 and one rat was tail vein injected with 5 mg/kg Zeta55. Plasma samples of 0.2 ml were taken at 0, 0.083, 0.25, 0.5, 1, 2, 3, 5, 8, 10, 24, 48, and 72 hours after administration and then measured by LC-MS/MS. AUC0-t, AUC0-∞, t1/2, Tmax, Vz/F, and Cl/F were analyzed by Phoenix winnonlin 8.0.

A further series concerns the target T1, HDAC6 (Homo sapiens, UniProt Q9UBN7).
T1 sequence (Q9UBN7 1-1215): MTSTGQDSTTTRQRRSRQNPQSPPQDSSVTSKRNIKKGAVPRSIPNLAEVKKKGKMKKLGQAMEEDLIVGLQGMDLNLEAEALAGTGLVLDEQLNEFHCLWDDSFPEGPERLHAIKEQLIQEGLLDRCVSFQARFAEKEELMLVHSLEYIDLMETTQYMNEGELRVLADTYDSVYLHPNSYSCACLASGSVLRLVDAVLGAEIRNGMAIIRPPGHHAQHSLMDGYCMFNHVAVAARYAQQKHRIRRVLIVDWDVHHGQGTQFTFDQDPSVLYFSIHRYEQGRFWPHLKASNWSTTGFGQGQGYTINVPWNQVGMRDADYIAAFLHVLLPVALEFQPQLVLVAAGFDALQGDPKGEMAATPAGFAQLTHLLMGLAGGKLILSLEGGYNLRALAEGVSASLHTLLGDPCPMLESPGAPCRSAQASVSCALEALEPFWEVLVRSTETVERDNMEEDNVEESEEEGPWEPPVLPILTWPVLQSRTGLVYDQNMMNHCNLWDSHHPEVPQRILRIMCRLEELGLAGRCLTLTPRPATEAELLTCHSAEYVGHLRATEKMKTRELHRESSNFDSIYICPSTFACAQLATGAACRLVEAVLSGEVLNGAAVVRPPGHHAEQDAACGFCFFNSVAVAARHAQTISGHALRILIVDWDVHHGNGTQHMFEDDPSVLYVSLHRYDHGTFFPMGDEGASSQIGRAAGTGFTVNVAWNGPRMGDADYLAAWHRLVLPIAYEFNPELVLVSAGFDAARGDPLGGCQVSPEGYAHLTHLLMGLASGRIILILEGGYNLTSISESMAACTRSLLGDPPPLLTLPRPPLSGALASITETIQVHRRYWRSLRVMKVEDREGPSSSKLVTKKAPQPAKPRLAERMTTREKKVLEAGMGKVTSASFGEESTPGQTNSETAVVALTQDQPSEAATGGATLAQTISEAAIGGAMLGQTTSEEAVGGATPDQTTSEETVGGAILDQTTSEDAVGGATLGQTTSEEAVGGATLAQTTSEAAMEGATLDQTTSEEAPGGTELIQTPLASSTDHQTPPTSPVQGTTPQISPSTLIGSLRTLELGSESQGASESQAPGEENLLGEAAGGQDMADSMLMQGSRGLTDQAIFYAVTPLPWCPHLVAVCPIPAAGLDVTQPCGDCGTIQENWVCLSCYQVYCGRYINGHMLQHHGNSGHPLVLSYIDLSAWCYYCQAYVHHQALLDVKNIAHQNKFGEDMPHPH
Description: acetylation of α-tubulin (HDAC6 substrate) in VCaP cells, Western blot. The class given is cell-based. The note with it: 24 hours. As for the experimental part: as §1
To evaluate the HDAC6 inhibition ability of Zeta55 in VCaP cells, the acetylation status of α-tubulin protein (a HDAC6 substrate) was assessed using western blot. […] We assessed the protein level of AR in VCaP cells.
The whole-cell extracts were prepared in lysis buffer with a protease inhibitor cocktail (Bimake), while the xenograft tissue extracts were prepared in 0.5% Nonidet P 40 Substitute solution (Biosharp) with cocktail protease inhibitor (Bimake). Each sample containing 30 μg of total protein was loaded onto 10% SDS-PAGE and electrotransferred onto polyvinylidene fluoride membranes. The membranes were blocked with 5% skimmed milk in PBST at room temperature for 2 hours and incubated with primary antibodies at 4° C overnight. After the membranes were washed with PBST three times, they were incubated with horseradish peroxidase-conjugated anti-rabbit or anti-mouse secondary antibody at room temperature for 1 hour. Chemiluminescent detection was performed with WesternBright ECL (Advansta). The immunoblots were visualized using the FluorChem FC3 system (ProteinSimple).

The next series deals with DU145 cells. Put plainly: cell proliferation assay. The class given is cell-based. The following applies: Homo sapiens, DU-145, 72 h, read-out: IC50 values proliferation DU145.
The mark [2] stands for this setting: IV, tail vein injection 5 mg/kg, n=1, rats.
Where [3] appears, read: male, SD, rat, plasma, IV, tail vein injection 5 mg/kg, n=1, rats.
[4] abbreviates: male, SD, rat, plasma, PO, oral gavage 20 mg/kg, n=4, rats.

Consider `N#Cc1ccc(N2C(=O)C3(CCC3)N(c3ccc(C(=O)NO)c(F)c3)C2=S)cc1C(F)(F)F` [Zeta55], for which, in the series with HSP90, HSP60, HSP70, the “expression levels of HSP70” value is “slightly up-regulated”; the “expression levels of HSP90 and HSP60” value is listed as “did not influence”. Also, in the series on TMPRSS2, the “DHT-induced endogenous mRNA and protein expression of TMPRSS2” value was “significantly suppressed”. In series [1] (setting [2]), the Cl/F turned out to be 114.6149 mL/min/kg and the Vz/F worked out at 7.741576 L/kg. For the same molecule, the t1/2 in series [1] (PO, oral gavage 20 mg/kg, n=4, rats, plasma, 20 mg/kg) was 174 min and 175.5 min. The molecule also had a half-life in series [1] (male, SD, rat, plasma, iv, 5 mg/kg, tail vein injection 5 mg/kg, n=1, rats) of approximately 48 min. For the same molecule, the half-life in series [1] (male, SD, rat, plasma, po, 20 mg/kg, oral gavage 20 mg/kg, n=4, rats) was approximately 174 min. Also, in series [1] (setting [3]), the AUC(0-inf) stood at 727 ng·h/mL, the Cmax stood at 1430 ng/mL, the Tmax is 4.98 min and the exposure AUC(0-t) is 722 ng·h/mL. In series [1] (male, SD, rat, plasma, PO 20 mg/kg vs IV 5 mg/kg, rats), this molecule showed a bioavailability of 17.6%. In series [1] (setting [4]), the AUC(0-inf) worked out at 555 ng·h/mL, the CL/F was 632 mL/min/kg, the Cmax was 183 ng/mL and the time of peak concentration (Tmax) was 22.5 min. The AUC(0-t) in series [1] (setting [4]) came to 508 ng·h/mL. Besides, the Vd/F in series [1] (male, SD, rat, plasma, PO, oral gavage 20 mg/kg, n=4, rats, read-out: Vz/F) is 166 L/kg. The α-tubulin acetylation entry at HDAC6 was “enhanced α-tubulin acetylation in a dose-dependent manner”. The IC50 in the series with DU145 cells is 45.7 µM.
